Measurements published in patent US20110263507A1 (priority 2007, published 2011).
Several values for one entry are separate records, joined by “and”; a condition that tells them apart may be missing. Equal values may be shown once. Read-outs that look alike come from different tables or passages of the source. Where a SMILES comes first, the peptide text is derived from it. Where no end group is shown, it is not given here. [ ]: non-standard residue; d: D form. Ala(indol-4-yl) = N[C@@H](Cc1cccc2[nH]ccc12)C(=O)O; NMeR = CN[C@@H](CCCNC(=N)N)C(=O)O; pGlu = O=C1CC[C@@H](C(=O)O)N1; Tle = CC(C)(C)[C@H](N)C(=O)O; dOrn = NCCC[C@@H](N)C(=O)O; Orn = NCCC[C@H](N)C(=O)O; Dab = NCC[C@H](N)C(=O)O

How the values were obtained:
hNTS1 = target: T1, hNTS1 (Homo sapiens, UniProt P30989); assay: Radioligand competition binding with [3H]NT, membranes of CHO-K1 cells expressing hNTS1; settings: for hNTS1 Selectivity: hNTS1 over hNTS2
T1 construct: expressed in transfected cells; host or cells: CHO-K1
Procedure: CHO-K1 cells that had been stably transfected separately with the hNTS1 or hNTS2 genes were cultured in 150 mm (500 cm^2) Petri plates with 35 ml of Dulbecco's modified Eagle's medium containing 100 μM minimal essential medium nonessential amino acids (Life Technologies, Inc.) supplemented with 5% (v/v) FetalClone II bovine serum product (Hyclone Labs, Logan, Utah). […] The cellular pellet (in Tris-HCl buffer) was stored at […] until the radioligand binding was performed.
For use in binding assays, crude membrane preparations were prepared by centrifugation of the cellular pellet at 35,600×g for 10 min. The supernatant was decanted and discarded, and the cellular pellet was resuspended in 1 ml of Tris-HCl buffer followed by homogenization with a Brinkmann Polytron at setting 5.5 for 15 s. Centrifugation was repeated as above, the supernatant was decanted and discarded, and the cellular pellet was resuspended in 1 ml of Tris-HCl buffer followed by homogenization. Centrifugation was repeated a third time, the supernatant was discarded, and the final cellular pellet was suspended in 0.5-2.5 ml of Tris-HCl buffer. Protein concentration of the membrane preparation was estimated by the method of Lowry et al. using bovine serum albumin as a standard.
Incubation was at 20° C. for 40 min. The assay was routinely terminated by addition of ice-cold 0.9% NaCl (5×1.5 ml), followed by rapid filtration through a GF/B filter strip that had been pretreated with 0.2% or 2% polyethyleneimine. Details of binding assays have been described previously. […] Data were analyzed using the LIGAND program.

hNTS2 = target: T2, hNTS2 (Homo sapiens, UniProt O95665); assay: Radioligand competition binding with [3H]NT, membranes of CHO-K1 cells expressing hNTS2; settings: for higher affinity at hNTS2 than the corresponding JMV peptide at mNTS2: NT33 vs JMV 510, NT51 vs JMV 509
T2 construct: expressed in transfected cells; host or cells: CHO-K1
Procedure: CHO-K1 cells that had been stably transfected separately with the hNTS1 or hNTS2 genes were cultured in 150 mm (500 cm^2) Petri plates with 35 ml of Dulbecco's modified Eagle's medium containing 100 μM minimal essential medium nonessential amino acids (Life Technologies, Inc.) supplemented with 5% (v/v) FetalClone II bovine serum product (Hyclone Labs, Logan, Utah). CHO cells (subculture 7-15) were harvested at confluence by aspiration of the medium, followed by a wash with ice-cold 50 mM Tris-HCl buffer, pH=7.4, which was discarded, resuspension in 5-15 ml of Tris-HCl, scraping the cells with a plastic spatula into a centrifuge tube, and collection of cells by centrifugation at 300×g for 5 min at 4° C., in a GPR centrifuge (Beckman Instruments, Fullerton, Calif.). The cellular pellet (in Tris-HCl buffer) was stored at −180° C. until the radioligand binding was performed.
Incubation was at 20° C. for 40 min. The assay was routinely terminated by addition of ice-cold 0.9% NaCl (5×1.5 ml), followed by rapid filtration through a GF/B filter strip that had been pretreated with 0.2% or 2% polyethyleneimine. […] Data were analyzed using the LIGAND program.
Curves were generated using the LIGAND program. […] Data are the means of duplicate determinations and are representative results from one of at least three independent experiments.

[1] = Table 2, read-out: hNTS2 Geometric Mean ∀ SEM (equilibrium dissociation constant Kd)
[2] = read-out: hNTS1 Geometric Mean ∀ SEM (equilibrium dissociation constant Kd)
[3] = text b54, read-out: Kd at hNTS2

T1 sequence (P30989 whole entry): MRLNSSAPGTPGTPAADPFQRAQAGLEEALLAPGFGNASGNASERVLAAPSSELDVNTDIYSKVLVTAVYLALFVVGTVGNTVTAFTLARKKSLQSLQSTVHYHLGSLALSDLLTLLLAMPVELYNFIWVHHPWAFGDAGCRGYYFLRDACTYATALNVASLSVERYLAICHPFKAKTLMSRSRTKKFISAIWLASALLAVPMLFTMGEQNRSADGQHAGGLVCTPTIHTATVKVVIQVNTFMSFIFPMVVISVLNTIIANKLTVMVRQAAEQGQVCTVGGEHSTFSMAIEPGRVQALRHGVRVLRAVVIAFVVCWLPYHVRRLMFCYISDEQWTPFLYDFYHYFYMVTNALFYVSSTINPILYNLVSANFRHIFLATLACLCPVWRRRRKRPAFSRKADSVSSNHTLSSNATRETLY
T2 sequence (O95665 whole entry): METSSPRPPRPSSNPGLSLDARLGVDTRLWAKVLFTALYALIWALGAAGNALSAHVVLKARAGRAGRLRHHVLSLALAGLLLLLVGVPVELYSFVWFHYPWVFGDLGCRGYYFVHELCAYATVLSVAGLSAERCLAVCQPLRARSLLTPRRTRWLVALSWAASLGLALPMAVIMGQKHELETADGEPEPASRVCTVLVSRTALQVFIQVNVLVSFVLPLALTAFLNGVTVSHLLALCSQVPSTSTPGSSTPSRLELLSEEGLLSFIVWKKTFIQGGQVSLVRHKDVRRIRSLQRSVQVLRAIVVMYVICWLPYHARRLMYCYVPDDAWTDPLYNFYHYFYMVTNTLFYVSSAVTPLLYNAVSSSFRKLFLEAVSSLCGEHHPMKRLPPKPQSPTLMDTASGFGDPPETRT

Compound | Kd (hNTS2; [1]) [nM] | hNTS1 Selectivity (hNTS1; Table 2) | hNTS2 Selectivity (hNTS2; Table 2, hNTS2 over hNTS1) | Kd (hNTS1; [2]) [nM] | also measured
RRPAIL [NT08, [Ala^11]NT(8-13)] [listing 1 of 2 here] | 58 ± 5 | – | – | – | Kd (hNTS1): 2500 ± 200 nM
[DAB^9,L-neo-Trp^11]NT(9-13) [NT75] | 169 ± 8 | 2.3 | 0.4 | – | Kd (hNTS1; Table 2, n.d. = no detectable binding at 1 μM, †/* values published before by the same laboratory, read-out: hNTS1 Geometric Mean ∀ SEM (equilibrium dissociation constant Kd)): 73 ± 5 nM
CC[C@H](C)[C@H](NC(=O)[C@@H]1Cc2ccccc2CN1C(=O)[C@@H]1CCCN1C(=O)[C@H](CCCNC(=N)N)NC(=O)[C@@H](N)CCCNC(=N)N)C(=O)N[C@@H](CC(C)C)C(=O)O [NT47, [L-TIC^11]NT(8-13)] | 14 | – | – | – | –
CC[C@H](C)[C@H](NC(=O)[C@H](Cc1ccc(O)cc1)NC(=O)[C@@H]1CCCN1C(=O)[C@@H](CCCN)NC(=O)[C@H](CCCNC(=N)N)NC(=O)[C@@H]1CCCN1C(=O)[C@H](CCCCN)NC(=O)[C@H](CC(N)=O)NC(=O)[C@H](CCC(=O)O)NC(=O)[C@H](Cc1ccc(O)cc1)NC(=O)[C@H](CC(C)C)NC(=O)[C@@H]1CCC(=O)N1)C(=O)N[C@@H](CC(C)C)C(=O)O [NT61, [D-Orn^9]NT(1-13)] ([pGlu]LYENKPR[dOrn]PYIL-OH; C-terminus assumed) | – | 4.4 | 0.2 | 1500 ± 100 | Kd (hNTS2; [3]): 6600 nM
CC[C@H](C)[C@H](NC(=O)[C@H](Cc1c[nH]c2ccccc12)NC(=O)[C@@H]1CCCN1C(=O)[C@H](CCCNC(=N)N)NC(=O)[C@H](N)CCCCN)C(=O)N[C@@H](CC(C)C)C(=O)O [NT67T, [D-Lys^8,L-Trp^11]NT(8-13)] (H-[dK]RPWIL-OH; N-terminus and C-terminus assumed) | 8 ± 0.4 | 0.5 | 2.2 | 17 ± 2 | –
CC[C@H](C)[C@H](NC(=O)[C@H](Cc1ccc(O)cc1)NC(=O)[C@@H]1CCCN1C(=O)[C@@H](CCCN)NC(=O)[C@@H](N)CCCNC(=N)N)C(=O)N[C@@H](CC(C)C)C(=O)O [NT24, [D-Orn^9]NT(8-13)] (H-R[dOrn]PYIL-OH; N-terminus and C-terminus assumed) | 790 ± 20 | 6.6 | 0.2 | 120 ± 10 | –
CC[C@H](C)[C@H](NC(=O)[C@H](Cc1cccc2ccccc12)NC(=O)[C@@H]1CCCN1C(=O)[C@H](CCCNC(=N)N)NC(=O)[C@@H](N)CCCNC(=N)N)C(=O)N[C@@H](CC(C)C)C(=O)O [NT49, [L-3,1-Nal^11]NT(8-13)] | 1.28 ± 0.05 | – | – | – | –
CC[C@H](C)[C@H](NC(=O)[C@H](Cc1ccc2ccccc2c1)NC(=O)[C@@H]1CCCN1C(=O)[C@H](CCCNC(=N)N)NC(=O)[C@@H](N)CCCNC(=N)N)C(=O)N[C@@H](CC(C)C)C(=O)O [NT33, [L-3,2-Nal^11]NT(8-13)] | 18 ± 1 | – | – | – | higher affinity at hNTS2 than the corresponding JMV peptide at mNTS2 (hNTS2): 12 fold
CC(C)C[C@H](NC(=O)[C@@H](NC(=O)[C@H](Cc1cccc2[nH]ccc12)NC(=O)[C@@H]1CCCN1C(=O)[C@@H](CCCN)NC(=O)[C@@H](N)CCCNC(=N)N)C(C)(C)C)C(=O)O [NT77, [D-Orn^9,L-neo-Trp^11,tert-Leu^12]NT(8-13)] (H-R[dOrn]P[Ala(indol-4-yl)][Tle]L-OH; N-terminus and C-terminus assumed) | 460 ± 70 | 0.3 | 3.3 | 1500 ± 100 | hNTS2 Selectivity (hNTS2; Table 4): 3.3
CC[C@H](C)[C@H](NC(=O)[C@H](Cc1ccc(O)cc1)NC(=O)[C@@H]1CCCN1C(=O)[C@@H](CCCNC(=N)N)NC(=O)[C@@H](N)CCCCN)C(=O)N[C@@H](CC(C)C)C(=O)O [NT16, [L-Lys^8,D-Arg^9]NT(8-13)] (H-K[dR]PYIL-OH; N-terminus and C-terminus assumed) | 39.6 ± 0.6 | 1.2 | 0.8 | 33 ± 6 | –
CN[C@@H](CCCNC(=N)N)C(=O)N[C@@H](CCN)C(=O)N1CCC[C@H]1C(=O)N[C@@H](Cc1cccc2[nH]ccc12)C(=O)N[C@H](C(=O)N[C@@H](CC(C)C)C(=O)O)C(C)(C)C [NT71, [N-methyl-Arg^8,DAB^9,L-neo-Trp^11,tert-leu^12]NT(8-13)] (H-[NMeR][Dab]P[Ala(indol-4-yl)][Tle]L-OH; N-terminus and C-terminus assumed) | 1.11 ± 0.03 | 0.7 | 1.5 | 1.71 ± 0.06 | –
CC[C@H](C)[C@H](NC(=O)[C@H](Cc1ccc(O)cc1)NC(=O)[C@@H]1CCCN1C(=O)[C@H](CCCN)NC(=O)[C@H](N)CCCN)C(=O)N[C@@H](CC(C)C)C(=O)O [NT27, [D-Orn^8,L-Orn^9]NT(8-13)] | 24 ± 2 | 6.6 | 0.2 | 3.6 ± 0.2 | –
CC[C@H](C)[C@H](NC(=O)[C@@H](Cc1ccc(O)cc1)NC(=O)[C@@H]1CCCN1C(=O)[C@H](CCCN)NC(=O)[C@@H](N)CCCNC(=N)N)C(=O)N[C@@H](CC(C)C)C(=O)O [NT36, [L-Orn^9,D-Tyr^11]NT(8-13)] (H-R[Orn]P[dY]IL-OH; N-terminus and C-terminus assumed) | 1160 ± 20 | – | – | – | binding / Kd at hNTS1 in words (hNTS1; text b54): no detectable binding; Kd at hNTS2 in words (hNTS2; text b54): micromolar Kd's
CC[C@H](C)[C@H](NC(=O)[C@H](Cc1ccc(O)cc1)NC(=O)[C@@H]1CCCN1C(=O)[C@@H](CCCN)NC(=O)[C@@H](N)CCCN)C(=O)N[C@@H](CC(C)C)C(=O)O [NT26, [L-Orn^8,D-Orn^9]NT(8-13)] | 1082 ± 6 | 3.0 | 0.3 | 360 ± 40 | –
CC[C@H](C)[C@H](NC(=O)[C@H](Cc1ccc(O)cc1)NC(=O)[C@@H]1CCCN1C(=O)[C@H](CCCN)NC(=O)[C@@H](N)CCCN)C(=O)N[C@@H](CC(C)C)C(=O)O [NT25, [L-Orn^8,L-Orn^9]NT(8-13)] | 3.9 ± 0.2 | 1.3 | 0.8 | 3 ± 0.3 | –
RRPYVL [NT10, [L-Val^12]NT(8-13)] | – | 0.8 | 1.3 | – | Kd (hNTS1): 11.3 ± 0.6 nM; Kd (hNTS2): 8.8 ± 0.4 nM
CC[C@H](C)[C@H](NC(=O)[C@@H](Cc1ccc2ccccc2c1)NC(=O)[C@@H]1CCCN1C(=O)[C@H](CCCNC(=N)N)NC(=O)[C@@H](N)CCCNC(=N)N)C(=O)N[C@@H](CC(C)C)C(=O)O [NT51, [D-3,2-Nal^11]NT(8-13)] | – | – | – | – | decrease in affinity at NTS2 on changing from L- to D-3,2-Nal (hNTS2; NT33 compared to NT51): < 2 fold; higher affinity at hNTS2 than the corresponding JMV peptide at mNTS2 (hNTS2): 28 fold and ~30 fold; Kd (hNTS2; text, read-out: Kd at hNTS2): 32.9 nM
CC[C@H](C)[C@H](NC(=O)[C@H](Cc1ccc(O)cc1)NC(=O)[C@@H]1CCCN1C(=O)[C@@H](CCCCN)NC(=O)[C@@H](N)CCCNC(=N)N)C(=O)N[C@@H](CC(C)C)C(=O)O [NT03, [D-Lys^9]NT(8-13)] (H-R[dK]PYIL-OH; N-terminus and C-terminus assumed) | – | 0.4 | 2.5 | – | Kd (hNTS1): 690 ± 30 nM; Kd (hNTS2): 280 ± 30 nM
RRPAIL [NT08, [Ala^11]NT(8-13)] [listing 2 of 2 here] | – | 0.02 | 43 | – | NTS2 Selectivity (hNTS2; Table 3): 43; hNTS2 Selectivity (hNTS2; Table 4): 43
RKPYIL [NT18, [L-Lys^9]NT(8-13)] | – | 0.8 | 1.3 | – | Kd (hNTS1): 1.49 ± 0.09 nM; Kd (hNTS2): 1.18 ± 0.09 nM
CC[C@H](C)[C@H](NC(=O)[C@H](Cc1ccc(O)cc1)NC(=O)[C@@H]1CCCN1C(=O)[C@H](N)CCCN)C(=O)N[C@@H](CC(C)C)C(=O)O [NT35, [D-Orn^9]NT(9-13)] (H-[dOrn]PYIL-OH; N-terminus and C-terminus assumed) | – | 19.1 | 0.1 | – | Kd (hNTS1; text, read-out: Kd at hNTS1): 550 nM; Kd (hNTS2; [3]): 10000 nM; Kd (hNTS2; text, read-out: Kd at hNTS2): 10500 nM
CC[C@H](C)[C@H](NC(=O)[C@H](Cc1ccc(O)cc1)NC(=O)[C@@H]1CCCN1C(=O)[C@H](CCCNC(=N)N)NC(=O)[C@@H](N)CCCN)C(=O)N[C@@H](CC(C)C)C(=O)O [NT21, [L-Orn^8]NT(8-13)] (H-[Orn]RPYIL-OH; N-terminus and C-terminus assumed) | 2.2 ± 0.1 | 5.2 | 0.2 | 0.41 ± 0.03 | –
CC[C@H](C)[C@H](NC(=O)[C@H](Cc1ccc(O)cc1)NC(=O)[C@@H]1CCCN1C(=O)[C@H](CCCCN)NC(=O)[C@@H](N)CCCCN)C(=O)N[C@@H](CC(C)C)C(=O)O [NT19, [L-Lys^8,L-Lys^9]NT(8-13)] | – | – | – | – | Kd (hNTS2): 2.4 ± 0.3 nM
CC[C@H](C)[C@H](NC(=O)[C@H]1Cc2ccccc2CN1C(=O)[C@@H]1CCCN1C(=O)[C@H](CCCNC(=N)N)NC(=O)[C@@H](N)CCCNC(=N)N)C(=O)N[C@@H](CC(C)C)C(=O)O [NT48, [D-TIC^11]NT(8-13)] | 255 | – | – | – | –
CC[C@H](C)[C@H](NC(=O)[C@H](Cc1ccc(O)cc1)NC(=O)[C@@H]1CCCN1C(=O)[C@@H](CCCCN)NC(=O)[C@H](N)CCCCN)C(=O)N[C@@H](CC(C)C)C(=O)O [NT20, [D-Lys^8,D-Lys^9]NT(8-13)] | – | – | – | – | Kd (hNTS2): 730 ± 60 nM
